Source: ChEMBL document CHEMBL1201862, “PubChem BioAssay data set” (2004)
Calls of active or inactive are those of the source.

Legend:
Nonstructural protein 1 = Nonstructural protein 1 (Influenza A virus, UniProt Q194T2); assay type: functional, Influenza A virus (A/California/07/2009(H1N1))
[1] = HEp-2 cell cytotoxicity, dose response, cytotoxicity control for RSV inhibitor project, HTS (AID 2410); assay type: functional; conditions: human respiratory syncytial virus
[2] = biological target: T1, Heat shock factor protein 1 (Mus musculus, UniProt P38532); experiment: HSF1 potentiators in luciferase reporter cells, confirmation, cell-based, NIH3T3, luminescence, dose retest (AID 435004); assay type: functional;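 note: stress induced by proteasome inhibitor MG132 added 30 min after compound; luciferase reporter driven by HSF1 response element in NIH3T3 cells; actives raise luminescence as potentiators of the MG132 stress response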
T1 sequence (P38532 whole entry): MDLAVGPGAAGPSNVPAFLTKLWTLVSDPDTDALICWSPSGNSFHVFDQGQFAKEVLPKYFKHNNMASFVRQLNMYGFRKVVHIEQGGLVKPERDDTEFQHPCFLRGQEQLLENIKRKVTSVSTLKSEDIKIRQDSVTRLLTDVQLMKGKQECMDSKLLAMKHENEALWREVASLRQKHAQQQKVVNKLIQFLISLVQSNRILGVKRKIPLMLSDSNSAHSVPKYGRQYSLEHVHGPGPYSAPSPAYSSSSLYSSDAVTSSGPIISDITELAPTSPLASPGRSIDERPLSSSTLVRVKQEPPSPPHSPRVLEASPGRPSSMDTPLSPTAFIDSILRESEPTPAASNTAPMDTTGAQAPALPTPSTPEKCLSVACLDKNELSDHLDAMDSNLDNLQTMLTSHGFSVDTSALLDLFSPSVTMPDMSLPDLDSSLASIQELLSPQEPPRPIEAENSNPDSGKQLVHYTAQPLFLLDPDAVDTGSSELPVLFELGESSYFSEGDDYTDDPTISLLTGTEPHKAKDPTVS

[3] = growth suppression of PTEN-null colon cells, dose response, cell-based, HCT116 PTEN knockout (AID 1047); assay type: functional;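 note: HCT116 colon tumor cells with PTEN knocked out; cells exposed to compound for 60 hours before readout; potency for loss of cell viability measured by luminescence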
[4] = growth suppression of beta-catenin-knockout colon cells, dose response, cell-based, HCT116, human colon tumor (AID 1045); assay type: functional;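 note: HCT116 colon tumor cells with beta catenin knocked out; cells exposed to compound for 60 hours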
[5] = biological target: Induced myeloid leukemia cell differentiation protein Mcl-1 (Homo sapiens, UniProt Q07820); assay type: functional
[6] = biological target: Luciferin 4-monooxygenase (Photinus pyralis, UniProt P08659); experiment: firefly luciferase enzyme inhibitors, dose response, biochemical, luminescence (AID 1891)
[7] = Luminescence Cell-Based Dose Confirmation HTS to Identify Inhibitors of Platelet Dense Granule Release. [Related pubchem assays: 1663 (Primary HTS), 1678 (Summary of Project)]; assay type: functional
H9c2 = experiment: cells; assay type: functional, cell-based; conditions: Rattus norvegicus, H9c2, Myocardium;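 note: confirmatory concentration-response retest of ultra-high-throughput screening hits for modulation of myocardial damage; cell death induced by hydrogen peroxide oxidative stress; compound pretreatment for 60 min then peroxide exposure for 2 h; potency is for protecting the cells against peroxide damage rather than for killing them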
[8] = biological target: T2, Ubiquitin-conjugating enzyme E2 N (Homo sapiens, UniProt P61088); assay type: functional;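 note: Dose-response confirmation in a TR-FRET assay detecting UBC13-driven polyubiquitin chain formation, inhibition measured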
T2 sequence (P61088 whole entry): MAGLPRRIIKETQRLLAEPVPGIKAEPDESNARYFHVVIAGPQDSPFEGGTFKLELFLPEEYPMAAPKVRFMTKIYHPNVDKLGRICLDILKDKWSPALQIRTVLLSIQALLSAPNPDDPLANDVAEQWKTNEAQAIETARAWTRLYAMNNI

[9] = microbe, parasite or virus in culture; assay type: functional; conditions: Mycobacterium tuberculosis
Genome polyprotein = Genome polyprotein (dengue virus type 2, UniProt P29990); experiment: Dengue-2 NS5 methyltransferase inhibitors, primary screen, biochemical, confirmation dose response (AID 588689); assay type: functional
[10] = biological target: T3, Small ubiquitin-related modifier 1 (Homo sapiens, UniProt P63165); experiment: inhibitors of SUMO1 peptide binding, dose response, biochemical, fluorescence polarization, uHTS hits (AID 624382); assay type: functional; conditions: read-out: IC50_Mean
[11] = biological target: T3, Small ubiquitin-related modifier 1; experiment: inhibitors of SUMO1 partner interactions, dose response, biochemical, FRET (AID 624383); assay type: functional; conditions: read-out: IC50_Mean
[12] = cytotoxicity toward NIH3T3 fibroblasts, dose response, counter-screen, cell-based, ATP luminescence, mouse fibroblasts (AID 2010); assay type: functional;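 note: cells exposed to compound for about 90 hours before reading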
[13] = inhibitors of intracellular T. cruzi replication, confirmation, NIH3T3 host cells, beta-gal luminescence (AID 2044); assay type: functional, cell-based;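 note: intracellular parasites grown in NIH/3T3 mouse fibroblasts as host cells; luminescent beta-galactosidase reporter signal from transgenic T. cruzi replicating inside host cells; inhibitors lower the luminescence signal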
Aminopeptidase N = biological target: T4, Aminopeptidase N (Plasmodium falciparum FcB1/Columbia, UniProt O96935); experiment: P. falciparum M1AAP inhibitors, biochemical, fluorogenic H-Leu-NHMec substrate, 1536-well (AID 1445); set-up: species or system Plasmodium falciparum 3D7, 3D7
T4 sequence (O96935 whole entry): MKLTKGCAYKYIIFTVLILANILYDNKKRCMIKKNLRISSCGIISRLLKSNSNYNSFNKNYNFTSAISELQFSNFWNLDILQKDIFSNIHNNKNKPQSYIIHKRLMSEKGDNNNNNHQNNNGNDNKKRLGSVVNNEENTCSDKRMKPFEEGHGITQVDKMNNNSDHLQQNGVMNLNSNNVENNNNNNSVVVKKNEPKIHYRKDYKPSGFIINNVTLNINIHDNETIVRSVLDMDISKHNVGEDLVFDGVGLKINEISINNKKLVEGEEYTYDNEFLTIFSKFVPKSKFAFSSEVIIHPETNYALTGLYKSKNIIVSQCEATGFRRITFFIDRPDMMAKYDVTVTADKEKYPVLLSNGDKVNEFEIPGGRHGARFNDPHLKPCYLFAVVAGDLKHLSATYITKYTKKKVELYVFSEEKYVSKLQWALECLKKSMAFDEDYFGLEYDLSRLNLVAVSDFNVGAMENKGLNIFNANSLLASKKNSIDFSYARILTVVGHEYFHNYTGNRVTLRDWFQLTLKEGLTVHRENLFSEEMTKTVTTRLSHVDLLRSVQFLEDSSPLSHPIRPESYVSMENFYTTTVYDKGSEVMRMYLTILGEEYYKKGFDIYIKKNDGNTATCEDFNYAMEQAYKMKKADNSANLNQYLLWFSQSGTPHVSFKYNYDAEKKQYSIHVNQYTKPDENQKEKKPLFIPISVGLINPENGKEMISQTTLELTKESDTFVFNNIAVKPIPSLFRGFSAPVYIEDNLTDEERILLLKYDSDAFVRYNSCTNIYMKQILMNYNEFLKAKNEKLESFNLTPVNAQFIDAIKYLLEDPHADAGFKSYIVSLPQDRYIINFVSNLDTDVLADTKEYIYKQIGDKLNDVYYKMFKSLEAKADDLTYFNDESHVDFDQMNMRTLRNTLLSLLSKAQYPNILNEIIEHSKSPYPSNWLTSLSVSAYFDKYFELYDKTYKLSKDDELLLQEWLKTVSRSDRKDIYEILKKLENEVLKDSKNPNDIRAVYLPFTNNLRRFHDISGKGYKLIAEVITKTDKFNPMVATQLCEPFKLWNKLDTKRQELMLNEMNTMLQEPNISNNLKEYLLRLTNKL

[14] = biological target: Heat shock protein HSP 90-alpha (Homo sapiens, UniProt P07900); assay type: functional, organism-based

Sequence of Luciferin 4-monooxygenase (P08659 whole entry): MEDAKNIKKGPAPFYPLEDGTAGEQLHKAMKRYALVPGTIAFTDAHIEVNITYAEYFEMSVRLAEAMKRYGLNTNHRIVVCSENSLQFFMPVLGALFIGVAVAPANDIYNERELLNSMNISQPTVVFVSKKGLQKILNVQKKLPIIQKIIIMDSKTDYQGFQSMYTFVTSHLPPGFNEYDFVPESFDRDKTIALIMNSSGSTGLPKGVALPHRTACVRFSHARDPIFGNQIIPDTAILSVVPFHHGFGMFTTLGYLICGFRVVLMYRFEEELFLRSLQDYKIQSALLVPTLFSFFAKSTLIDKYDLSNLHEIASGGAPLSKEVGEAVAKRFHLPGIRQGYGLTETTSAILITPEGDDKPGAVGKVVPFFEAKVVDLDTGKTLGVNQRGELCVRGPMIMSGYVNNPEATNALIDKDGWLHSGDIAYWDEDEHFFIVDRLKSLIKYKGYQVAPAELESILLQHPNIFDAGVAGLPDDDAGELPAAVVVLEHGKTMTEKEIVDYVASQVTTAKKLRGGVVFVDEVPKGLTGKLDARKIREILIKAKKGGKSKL
T3 sequence (P63165 whole entry): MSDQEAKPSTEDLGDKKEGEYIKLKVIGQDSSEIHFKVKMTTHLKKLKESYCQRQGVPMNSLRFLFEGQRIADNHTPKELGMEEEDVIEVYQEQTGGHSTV
Sequence of Nonstructural protein 1 (Q194T2 whole entry): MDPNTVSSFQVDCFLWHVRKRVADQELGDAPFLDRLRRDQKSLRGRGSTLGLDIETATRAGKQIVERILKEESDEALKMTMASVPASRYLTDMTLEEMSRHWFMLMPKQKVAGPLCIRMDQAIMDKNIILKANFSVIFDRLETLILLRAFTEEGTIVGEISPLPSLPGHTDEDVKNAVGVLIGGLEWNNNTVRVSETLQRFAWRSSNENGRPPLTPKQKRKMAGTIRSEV
Sequence of Genome polyprotein (P29990 2492-3391 limits assumed): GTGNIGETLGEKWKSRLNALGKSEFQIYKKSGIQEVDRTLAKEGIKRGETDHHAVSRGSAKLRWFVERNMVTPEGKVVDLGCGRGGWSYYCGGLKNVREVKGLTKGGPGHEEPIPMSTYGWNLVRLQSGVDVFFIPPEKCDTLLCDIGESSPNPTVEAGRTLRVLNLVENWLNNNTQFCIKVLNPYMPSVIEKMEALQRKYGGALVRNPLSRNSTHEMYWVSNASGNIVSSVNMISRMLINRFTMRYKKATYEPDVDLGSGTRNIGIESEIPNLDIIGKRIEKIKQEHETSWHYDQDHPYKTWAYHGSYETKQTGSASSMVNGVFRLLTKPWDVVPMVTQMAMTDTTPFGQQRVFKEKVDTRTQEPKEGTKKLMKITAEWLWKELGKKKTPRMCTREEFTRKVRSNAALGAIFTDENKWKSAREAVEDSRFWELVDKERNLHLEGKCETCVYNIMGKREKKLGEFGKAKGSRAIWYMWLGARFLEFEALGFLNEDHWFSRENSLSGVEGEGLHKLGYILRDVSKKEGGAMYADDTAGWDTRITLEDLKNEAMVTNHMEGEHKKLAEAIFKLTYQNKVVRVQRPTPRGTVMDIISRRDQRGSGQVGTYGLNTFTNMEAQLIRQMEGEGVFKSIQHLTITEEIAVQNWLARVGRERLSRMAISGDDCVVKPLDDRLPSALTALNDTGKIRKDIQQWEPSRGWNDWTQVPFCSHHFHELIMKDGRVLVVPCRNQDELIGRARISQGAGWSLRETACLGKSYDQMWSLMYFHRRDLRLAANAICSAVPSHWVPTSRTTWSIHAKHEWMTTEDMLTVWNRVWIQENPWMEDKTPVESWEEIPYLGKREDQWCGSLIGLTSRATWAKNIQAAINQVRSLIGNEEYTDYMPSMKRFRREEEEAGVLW
Sequence of Induced myeloid leukemia cell differentiation protein Mcl-1 (Q07820 whole entry): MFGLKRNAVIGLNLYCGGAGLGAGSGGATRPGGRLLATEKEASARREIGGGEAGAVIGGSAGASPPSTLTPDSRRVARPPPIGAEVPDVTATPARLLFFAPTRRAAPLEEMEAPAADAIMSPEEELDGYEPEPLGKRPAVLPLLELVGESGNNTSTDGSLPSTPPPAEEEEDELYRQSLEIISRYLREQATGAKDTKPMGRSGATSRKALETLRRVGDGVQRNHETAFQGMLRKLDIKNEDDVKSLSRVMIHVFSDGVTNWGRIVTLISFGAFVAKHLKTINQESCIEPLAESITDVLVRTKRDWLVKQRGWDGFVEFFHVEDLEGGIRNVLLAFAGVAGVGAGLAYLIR

CN1C(=S)N(c2cccnc2)C(=O)/C1=C\c1ccc(N(C)C)cc1
IC50 (Nonstructural protein 1): > 100 µM (active)

COC(=O)C(NC(=O)c1ccccc1C)(Nc1ncc(S(=O)(=O)c2ccc([N+](=O)[O-])cc2)s1)C(F)(F)F (stereo unspecified)
CC50 [1]: 12.4 µM (active)

O=C(Nc1nccs1)c1cccc(N2C(=O)c3cccc4c([N+](=O)[O-])ccc(c34)C2=O)c1
EC50 [2]: 8.49 µM (active) | EC50 [3]: 3.77 µM (active) | EC50 [4]: 2.23 µM (active) | IC50 [5]: 1.45 µM (not active)

Cc1cccc(N=C(S)NCc2ccncc2)c1C
EC50 [6]: > 112 µM (not active) | EC50 [7]: > 112 µM (not active)

CSc1ccccc1C(=O)Nc1nc2ccccc2[nH]1
EC50 [6]: > 112 µM (not active) | EC50 [7]: > 112 µM (not active)

COC(=O)c1ccc(C(=O)OC)c(NC(=O)COC(=O)C23CC4CC(CC(O)(C4)C2)C3)c1
IC50 (H9c2): > 79 µM (inactive)

O=C(CSc1nc2ccsc2c(=O)n1Cc1ccccc1)NCC1CCCO1 (stereo unspecified)
IC50 [8]: > 20 µM (inactive)

Clc1ccc(NNc2ccnc3cc(Cl)ccc23)cc1
CC50 [9]: > 40 µM (active) | IC50 (Nonstructural protein 1): 34.6 µM (active)

COc1ccc(C(C2C(=O)CC(C)(C)CC2=O)C2C(=O)CC(C)(C)CC2=O)cc1CO
IC50 (Genome polyprotein): 45.8 µM (active)

NC(=O)CSc1cn(Cc2ccc(F)cc2)c2ccccc12
EC50 [6]: > 112 µM (not active) | EC50 [7]: > 112 µM (not active)

NC(=O)c1ccsc1NC(=O)c1cc(=O)c2ccccc2o1
IC50 [10]: > 66.6 µM (inactive) | IC50 [11]: 11.7 µM (active)

COc1ccc(CCn2c(Br)nc3c2c(=O)[nH]c(=O)n3C)cc1
IC50 (H9c2): > 79 µM (inactive)

Cc1ccc(-c2nnc(CSc3nc(C(C)C)nc4sc(C)c(C)c34)o2)cc1
EC50 [6]: > 112 µM (not active) | EC50 [7]: > 112 µM (not active)

O=C(Nc1nc(-c2ccccc2)cs1)C1CCCN(S(=O)(=O)c2ccccc2)C1 (stereo unspecified)
EC50 [12]: > 30 µM (not active) | EC50 [13]: 2.68 µM (active) | CC50 [1]: 2.26 µM (active)

Cc1ccc2c(c1)c1nnc(SCC(=O)Nc3ccccc3C(F)(F)F)nc1n2CC(=O)O
IC50 (Aminopeptidase N): 18.6 µM (active)

CCC(CC)c1nnc(NC(=O)CCNC(=O)c2ccccc2Cl)s1
EC50 [6]: > 112 µM (not active) | EC50 [7]: > 112 µM (not active)

CN(C)C(=O)C1C2N=C(S)N(c3cccc(Cl)c3)C1(C)Oc1ccc(Cl)cc12 (stereo unspecified)
IC50 (H9c2): 54.6 µM (inactive)

O=C(CN1CCN(c2ncc(C(F)(F)F)cc2Cl)CC1)NCCNc1ncc(C(F)(F)F)cc1Cl
AC50 [14]: 5.87 µM (active)

CCCOc1ccc(/C=C2/C(=O)ON=C2C)cc1OCC
IC50 (Genome polyprotein): 29 µM (active)
